Source: patent US7739055B2, “Methods and systems for generating and evaluating peptides” (priority 2005, dated 2010)
In brackets after ≈: the same amount, converted by molar mass. Where two headings read alike, the source gives them in different places. Where a SMILES comes first, the peptide text is derived from it.

Columns and labels:
[1] = tested on: Smith Diffuse strain of Staphylococcus aureus
[2] = tested on: Sterne strain of Bacillus anthracis
[3] = first concentration that prohibits growth by OD at 24 hours, Table 1

Molecule: ASPTVFRSSVFLSLFVVAKK [Shuffled 43]
- MIC E. coli (Escherichia coli; [3]): + (MIC greater than 256 ug/mL)
- MIC B. cereus (B. cereus; [3]): + (MIC greater than 256 ug/mL)
- MIC S. aureus ([1]; Smith Diffuse strain, Table 1): + (MIC greater than 256 ug/mL)
- MIC B. anthracis [2]: + (key: +: MIC greater than 256 ug/mL; ++: MIC greater than 128 ug/mL, not sufficiently soluble to test as 256 ug/mL)

Molecule: CC[C@H](C)[C@H](NC(=O)[C@H](CCCCN)NC(=O)[C@H](CCCCN)NC(=O)[C@H](Cc1ccccc1)NC(=O)[C@H](CC(C)C)NC(=O)[C@H](CCCCN)NC(=O)[C@H](Cc1c[nH]c2ccccc12)NC(=O)[C@@H](N)CCCCN)C(=O)NCC(=O)N[C@@H](C)C(=O)N[C@H](C(=O)N[C@@H](CC(C)C)C(=O)N[C@@H](CCCCN)C(=O)N[C@H](C(=O)N[C@@H](CC(C)C)C(N)=O)C(C)C)C(C)C [Cec Mel Hyb, KWKLFKKIGAVLKVL-NH2] (H-KWKLFKKIGAVLKVL-NH2)
- MIC B. cereus (B. cereus; 24 h): 8 µg/mL (≈ 4.52 µM)
- MIC S. aureus ([1]; Smith Diffuse strain of): 4 µg/mL (≈ 2.26 µM)
- MIC B. anthracis [2]: 16 µg/mL (≈ 9.04 µM)

Molecule: CC[C@H](C)[C@H](NC(=O)[C@@H](NC(=O)[C@H](C)NC(=O)[C@@H]1CCCN1C(=O)[C@H](Cc1ccccc1)NC(=O)[C@@H](NC(=O)[C@H](CCCCN)NC(=O)[C@H](CO)NC(=O)[C@H](C)NC(=O)[C@@H](NC(=O)[C@H](CCCNC(=N)N)NC(=O)[C@H](Cc1ccccc1)NC(=O)[C@H](CC(C)C)NC(=O)[C@H](C)NC(=O)CNC(=O)[C@@H](N)CC(C)C)C(C)C)C(C)C)C(C)C)C(=O)N[C@@H](CO)C(=O)N[C@@H](CCSC)C(=O)N[C@H](C(=O)N[C@@H](CCCCN)C(=O)O)C(C)C [Peptide 22] (H-LGALFRVASKVFPAVISMVK-OH; N-terminus and C-terminus assumed)
- MIC E. coli (Escherichia coli; 24 h): 256 µg/mL (≈ 120 µM)
- MIC B. cereus (B. cereus; 24 h): 64 µg/mL (≈ 30 µM)
- MIC S. aureus ([1]; Smith Diffuse strain of): 64 µg/mL (≈ 30 µM)
- MIC B. anthracis [2]: 64 µg/mL (≈ 30 µM)

Molecule: CC(C)C[C@H](NC(=O)[C@H](CCCCN)NC(=O)[C@H](Cc1ccccc1)NC(=O)[C@H](CC(C)C)NC(=O)[C@@H](NC(=O)[C@@H]1CCCN1C(=O)[C@@H](N)CC(C)C)C(C)C)C(=O)N[C@@H](C)C(=O)N[C@@H](CO)C(=O)N[C@@H](CCCCN)C(=O)N[C@H](C(=O)N[C@@H](Cc1ccccc1)C(=O)N1CCC[C@H]1C(=O)N[C@@H](C)C(=O)N[C@H](C(=O)N[C@@H](Cc1ccccc1)C(=O)N[C@@H](CO)C(=O)N[C@@H](CO)C(=O)N[C@@H](CC(C)C)C(=O)N[C@@H](CCCCN)C(=O)O)C(C)C)C(C)C [Peptide 63] (H-LPVLFKLASKVFPAVFSSLK-OH; N-terminus and C-terminus assumed)
- MIC E. coli (Escherichia coli; 24 h): 256 µg/mL (≈ 117 µM)
- MIC B. cereus (B. cereus; 24 h): 64 µg/mL (≈ 29.2 µM)
- MIC S. aureus ([1]; Smith Diffuse strain of): 128 µg/mL (≈ 58.4 µM)
- MIC B. anthracis [2]: 128 µg/mL (≈ 58.4 µM)

Molecule: CC[C@H](C)[C@H](NC(=O)[C@H](CC(C)C)NC(=O)[C@H](C)NC(=O)[C@@H]1CCCN1C(=O)[C@H](C)NC(=O)[C@@H](NC(=O)[C@H](CCCCN)NC(=O)[C@@H](N)CCCNC(=N)N)C(C)C)C(=O)N[C@@H](CCCCN)C(=O)N[C@@H](CO)C(=O)N[C@@H](Cc1ccccc1)C(=O)N[C@H](C(=O)N[C@@H](Cc1ccccc1)C(=O)N[C@@H](CC(C)C)C(=O)N[C@@H](Cc1ccccc1)C(=O)N[C@@H](CCCCN)C(=O)N[C@@H](Cc1ccccc1)C(=O)N[C@@H](CCCCN)C(=O)N[C@@H](CCCCN)C(=O)NCC(=O)O)C(C)C [Shuffled 51] (H-RKVAPALIKSFVFLFKFKKG-OH; N-terminus and C-terminus assumed)
- MIC E. coli (Escherichia coli): + (key: +: MIC greater than 256 ug/mL; ++: MIC greater than 128 ug/mL, not sufficiently soluble to test as 256 ug/mL)
- MIC S. aureus ([1]; Smith Diffuse strain of): 128 µg/mL (≈ 55.1 µM)
- MIC B. anthracis [2]: 256 µg/mL (≈ 110 µM)

Molecule: KVFIATLVVSSFLLAKPPRV [Shuffled 35]
- MIC E. coli (Escherichia coli; [3]): + (MIC greater than 256 ug/mL)
- MIC B. cereus (B. cereus; [3]): + (MIC greater than 256 ug/mL)
- MIC S. aureus ([1]; Smith Diffuse strain, Table 1): + (MIC greater than 256 ug/mL)
- MIC B. anthracis [2]: + (key: +: MIC greater than 256 ug/mL; ++: MIC greater than 128 ug/mL, not sufficiently soluble to test as 256 ug/mL)

Molecule: CC(C)C[C@H](NC(=O)[C@H](C)NC(=O)[C@H](CO)NC(=O)[C@H](Cc1ccccc1)NC(=O)[C@@H](NC(=O)[C@H](CO)NC(=O)[C@@H]1CCCN1C(=O)[C@@H](NC(=O)[C@@H](NC(=O)[C@H](CCCCN)NC(=O)[C@H](CO)NC(=O)[C@H](C)NC(=O)[C@H](CC(C)C)NC(=O)[C@H](CCCCN)NC(=O)[C@H](Cc1ccccc1)NC(=O)[C@@H](NC(=O)[C@H](Cc1ccccc1)NC(=O)[C@@H](N)CO)C(C)C)C(C)C)C(C)C)C(C)C)C(=O)N[C@H](C(=O)N[C@@H](CCCNC(=N)N)C(=O)O)[C@@H](C)O [Peptide 43] (H-SFVFKLASKVVPSVFSALTR-OH; N-terminus and C-terminus assumed)
- MIC E. coli (Escherichia coli; 24 h): 256 µg/mL
- MIC B. cereus (B. cereus; 24 h): 256 µg/mL
- MIC S. aureus ([1]; Smith Diffuse strain of): 256 µg/mL
- MIC B. anthracis [2]: 128 µg/mL

Molecule: CC(C)C[C@H](NC(=O)[C@H](CC(C)C)NC(=O)[C@H](CO)NC(=O)[C@H](CCCCN)NC(=O)[C@H](CC(C)C)NC(=O)[C@@H]1CCCN1C(=O)[C@H](C)NC(=O)[C@H](Cc1ccccc1)NC(=O)[C@@H]1CCCN1C(=O)[C@H](CC(C)C)NC(=O)[C@@H](NC(=O)[C@H](CCCCN)NC(=O)[C@H](CCCCN)NC(=O)[C@@H](NC(=O)[C@H](CO)NC(=O)[C@@H](N)C(C)C)C(C)C)C(C)C)C(=O)N[C@@H](CO)C(=O)N[C@@H](Cc1ccccc1)C(=O)N[C@@H](C)C(=O)N[C@@H](Cc1ccccc1)C(=O)O [Shuffled 63] (H-VSVKKVLPFAPLKSLLSFAF-OH; N-terminus and C-terminus assumed)
- MIC E. coli (Escherichia coli; 24 h): 256 µg/mL (≈ 117 µM)
- MIC B. cereus (B. cereus; 24 h): 256 µg/mL (≈ 117 µM)
- MIC S. aureus ([1]; Smith Diffuse strain, Table 1): + (MIC greater than 256 ug/mL)

Molecule: TLVGVVAKLVATKIGSSPRA [Shuffled 56]
- MIC E. coli (Escherichia coli; [3]): + (MIC greater than 256 ug/mL)
- MIC B. cereus (B. cereus; [3]): + (MIC greater than 256 ug/mL)

Molecule: SKFPLAGIFSVPGVKRVVVI [Shuffled 75]
- MIC E. coli (Escherichia coli; [3]): + (MIC greater than 256 ug/mL)
- MIC B. cereus (B. cereus; [3]): + (MIC greater than 256 ug/mL)

Molecule: LGVVGSLASKVVPAVISKVK [Peptide 57]
- MIC E. coli (Escherichia coli; [3]): + (MIC greater than 256 ug/mL)
- MIC B. cereus (B. cereus; [3]): + (MIC greater than 256 ug/mL)

Molecule: SALGRVASKVFPAVYCSITK [Peptide 15]
- MIC E. coli (Escherichia coli; [3]): + (MIC greater than 256 ug/mL)
- MIC B. cereus (B. cereus; [3]): + (MIC greater than 256 ug/mL)

Molecule: CC[C@H](C)[C@H](NC(=O)CN)C(=O)NCC(=O)N[C@@H](CCCCN)C(=O)N[C@@H](Cc1ccccc1)C(=O)N[C@@H](CC(C)C)C(=O)N[C@@H](Cc1c[nH]cn1)C(=O)N[C@@H](CO)C(=O)N[C@@H](C)C(=O)N[C@@H](CCCCN)C(=O)N[C@@H](CCCCN)C(=O)N[C@@H](Cc1ccccc1)C(=O)NCC(=O)N[C@@H](CCCCN)C(=O)N[C@@H](C)C(=O)N[C@@H](Cc1ccccc1)C(=O)N[C@H](C(=O)NCC(=O)N[C@@H](CCC(=O)O)C(=O)N[C@H](C(=O)N[C@@H](CCSC)C(=O)N[C@@H](CC(N)=O)C(=O)N[C@@H](CO)C(=O)O)[C@@H](C)CC)C(C)C [Magainin 2] (H-GIGKFLHSAKKFGKAFVGEIMNS-OH; N-terminus and C-terminus assumed)
- MIC E. coli (Escherichia coli; 24 h): 64 µg/mL (≈ 25.9 µM)
- MIC B. cereus (B. cereus; 24 h): 256 µg/mL (≈ 104 µM)

Molecule: SVKPVGSSVVKGTALVKFFG [Shuffled 34]
- MIC E. coli (Escherichia coli; [3]): + (MIC greater than 256 ug/mL)
- MIC B. cereus (B. cereus; [3]): + (MIC greater than 256 ug/mL)

Molecule: KYGPALVIAVKKSCSLTFRA [Shuffled 23]
- MIC E. coli (Escherichia coli; [3]): + (MIC greater than 256 ug/mL)
- MIC B. cereus (B. cereus; [3]): + (MIC greater than 256 ug/mL)

Molecule: CC[C@H](C)[C@H](NC(=O)[C@H](Cc1ccccc1)NC(=O)CN)C(=O)NCC(=O)N[C@@H](CCCCN)C(=O)N[C@@H](CC(C)C)C(=O)N[C@@H](C)C(=O)N[C@@H](CO)C(=O)N[C@@H](CCCCN)C(=O)N[C@H](C(=O)N[C@H](C(=O)N1CCC[C@H]1C(=O)N[C@@H](CO)C(=O)N[C@H](C(=O)N[C@@H](Cc1ccc(O)cc1)C(=O)N[C@@H](CS)C(=O)N[C@@H](CCCCN)C(=O)N[C@H](C(=O)N[C@H](C(=O)NCC(=O)O)[C@@H](C)O)C(C)C)C(C)C)C(C)C)C(C)C [Peptide 24] (H-GFIGKLASKVVPSVYCKVTG-OH; N-terminus and C-terminus assumed)
- MIC E. coli (Escherichia coli; 24 h): 128 µg/mL (≈ 62.3 µM)
- MIC B. cereus (B. cereus; [3]): + (MIC greater than 256 ug/mL)

Molecule: GVVGKLASKVVPSVFGSFTK [Peptide 34]
- MIC E. coli (Escherichia coli; [3]): + (MIC greater than 256 ug/mL)
- MIC B. cereus (B. cereus; [3]): + (MIC greater than 256 ug/mL)

Molecule: CC(C)[C@H](N)C(=O)N[C@H](C(=O)N[C@@H](Cc1ccccc1)C(=O)N[C@@H](CCCNC(=N)N)C(=O)N[C@H](C(=O)N[C@@H](C)C(=O)N[C@@H](CO)C(=O)N[C@@H](CCCCN)C(=O)N[C@H](C(=O)N[C@@H](Cc1ccccc1)C(=O)N1CCC[C@H]1C(=O)N[C@@H](C)C(=O)N[C@H](C(=O)N[C@@H](Cc1ccc(O)cc1)C(=O)N[C@@H](CS)C(=O)N[C@H](C(=O)N[C@H](C(=O)N[C@@H](CO)C(=O)N[C@@H](CCCCN)C(=O)N[C@@H](CCCCN)C(=O)O)C(C)C)[C@@H](C)O)C(C)C)C(C)C)C(C)C)C(C)C [Peptide 2] (H-VVFRVASKVFPAVYCTVSKK-OH; N-terminus and C-terminus assumed)
- MIC E. coli (Escherichia coli; 24 h): 128 µg/mL (≈ 57.4 µM)
- MIC B. cereus (B. cereus; [3]): + (MIC greater than 256 ug/mL)

Molecule: IASAVPVCVKGKISKSYISV [Shuffled 44]
- MIC E. coli (Escherichia coli; [3]): + (MIC greater than 256 ug/mL)
- MIC B. cereus (B. cereus; [3]): + (MIC greater than 256 ug/mL)

Molecule: ALVYAGIKKTAFLKVQKCDG [Shuffled 33]
- MIC E. coli (Escherichia coli; [3]): + (MIC greater than 256 ug/mL)
- MIC B. cereus (B. cereus; [3]): + (MIC greater than 256 ug/mL)

Molecule: VKTKCSVPAVVYILVKTFKS [Shuffled 88]
- MIC E. coli (Escherichia coli; [3]): + (MIC greater than 256 ug/mL)
- MIC B. cereus (B. cereus; [3]): + (MIC greater than 256 ug/mL)

Molecule: GLKKDALQSIVKKAQLAAMG [Shuffled 9]
- MIC E. coli (Escherichia coli; [3]): + (MIC greater than 256 ug/mL)
- MIC B. cereus (B. cereus; [3]): + (MIC greater than 256 ug/mL)
